Assay results published in patent US20220249475A1, “COMPOUNDS AND METHOD FOR TREATING CYTOKINE RELEASE SYNDROME” (Rigel Pharmaceuticals, Inc., priority 2019, published 2022).
pEC50: −log10 of the molar value.

Tests used:
Type in all cases: cell-based
[1] = test system: Dendritic cells + T cells + CD3/CD28 beads; assay: CRS assay: Cell Titer Glo compound cytotoxicity; details: Homo sapiens, luminescence of the remaining culture, read-out: Cell Titer Glo 2 EC50
From the text: (§1) Human PBMC cells (PPA Research Group, Cat No. 15-00021); RPMI media 10% FBS; GMCSF (Peprotech, Cat No. 300-03) and IL4 (Peprotech Cat No. 200-04); White clear bottom 96 well plates (Fisher, Cat No. 07-200-587, Corning #3903); Human IL-2 DuoSet ELISA (R&D Systems, Cat No. DY202); Human IL-6 DuoSet ELISA (R&D Systems, Cat No. DY206); Cell Titer Glo reagent (Promega, Cat No. G7573); Dynabeads Human T-Activator CD3/CD28 (Fisher, Cat No. 111.61D); Anti-human CD3 (BD Biosciences, Cat No. 555336); CD28, Clone CD28.2 (Beckman Coulter Inc. Cat No. IM1376); Recombinant Human IL-2 Protein (R&D Systems, Cat No. 202-IL-500).
After 4 days, the dendritic cells were harvested by spinning down (1000 rpm/10 min) and aspirating the media. After resuspending the cells in fresh RPMI media (10% FBS), the cells were plated (25K/well in 50 μl) onto a white clear bottom 96 well plate. […] of RPMI media containing 2× concentrated test compound was added per well to the above cell-culture media (final concentration becomes 1×) and the plates were pre-incubated for 1 hour at 37° C. […]
(§2) After incubation, 80 μl of the supernatant was harvested from each well for IL6 ELISA and 80 μl of the supernatant for IL2 ELISA. […] The plate was read for luminescence intensity to determine the compound cytotoxicity.

[2] = test system: Dendritic cells + T cells + CD3/CD28 beads; assay: CRS assay: dendritic cells + T cells + CD3/CD28 beads, IL2 ELISA; details: Homo sapiens; same culture; IL-2 only produced by the activated T cells
From the text: as §1
Human peripheral blood mononuclear cells (PBMC) (400 million) obtained from the vendor were transferred into three T-175 flasks containing 16 ml RPMI media (10% fetal bovine serum (FBS)) and incubated for 2 hours at 37° C. After 2 hours, floating PBL was removed and the cell was rinsed twice with 10 ml of media. The PBL and media was saved for T cell expansion. 16 ml of fresh RPMI media (10% FBS) containing Granulocyte Macrophage Colony—Stimulating Factor (GMCSF) (100 ng/ml) and IL4 (20 ng/ml) was added and the flask was kept in a 37° C. incubator. […]
as §2

[3] = test system: Dendritic cells + T cells + CD3/CD28 beads; assay: CRS assay: dendritic cells + T cells + CD3/CD28 beads, IL6 ELISA; details: human PBMC-derived dendritic cells, 1 hour compound pre-incubation, overnight with T cells and CD3/CD28 beads; IL-6 primarily produced by the dendritic cells

Compound | pEC50 [1] | pEC50 [2] | pEC50 [3]
COc1cc(Nc2ncc(C)c(Nc3ccc4oc(=O)[nH]c4c3)n2)cc(C)c1F [Compound I-432, 5-(2-(4-fluoro-3-methoxy-5-methylphenylamino)-5-methylpyrimidin-4-ylamino)benzo[d]oxazol-2(3H)-one] | 5.34 | 5.36 | 7.28
CCO[C@H]1CC[C@H](n2cc(NC(=O)c3csc(-c4cn[nH]c4)n3)c(-c3nc(F)ccc3F)n2)CC1 [VI-176, N-(3-(3,6-difluoropyridin-2-yl)-1-((1r,4r)-4-ethoxycyclohexyl)-1H-pyrazol-4-yl)-2-(1H-pyrazol-4-yl)thiazole-4-carboxamide] | 4.92 | 5.16 | 6.71
